Test results as given in patent US20030022826A1, “Use of synthetic peptides to induce tolerance to pathogenic T and B cell epitopes of autoantigens or infectious agents” (priority 1987, published 2003).
Marks after values point to notes of the source that are not given here.

Assays:
HIVIIIB = experiment: Anti-HIVIIIB neutralizing antibodies in immunized goats (reverse transcriptase inhibition); type: in vivo, HIV; details: 3 mg, CFA then IFA, after the fourth immunization
Procedure: FIG. 15. […] Goat 102A was immunized with 3 mg of the F-Th-B peptide, F-T1-SP10IIIB(A) and goat 104A was immunized with the HIVIIIB Th-B peptide, T1-SP10IIIB. Immunizations were in CFA (first dose) and IFA (doses 2-4). Neutralizing titers are titers at which reverse transcriptase production was inhibited by 90% or greater.
Immunizations: For goats, 3 mg of peptide were injected intramuscularly in each gluteal region in complete Freund's adjuvant (CFA) (1st dose), then incomplete Freund's adjuvant (IFA) (subsequent doses). For immunization of chimpanzees, varying doses of peptides were injected IM in IFA in a total volume of 4 cc, with 1 cc injected into right and left upper arms and thighs.
(§1) HIV Neutralization Assays: The ability of chimpanzee or goat serum antibodies to neutralize HIV was determined in syncytium inhibition assay and reverse transcriptase inhibition assay as previously described (Palker et al, J. Immunol. 142:3612 (1989); Palker et al, Proc. Natl. Acad. Sci. USA 85:1932 (1988)). Sera were heat inactivated (30 min, 56° C.) prior to each assay.

[1] = test system: Th-B peptide, T1-SP10IIIB(A); experiment: PBMC 3H-thymidine incorporation response to HIV Th-B peptide in immunized chimpanzees; type: in vivo, chimpanzee; details: 7 day tritiated thymidine incorporation assays
Description: Acpm=experimental cpm—control cpm.

[2] = test system: Th-B peptide, T1-SP10IIIB; experiment: Endpoint ELISA anti-peptide antibody titers in chimpanzees immunized with HIV env synthetic peptides; type: in vivo, chimpanzee; details: for immunogenicity in chimpanzees (antibody response): low (0.1 mg/kg) or high (0.5 mg/kg) doses in IFA
Procedure: Immunizations: For goats, 3 mg of peptide were injected intramuscularly in each gluteal region in complete Freund's adjuvant (CFA) (1st dose), then incomplete Freund's adjuvant (IFA) (subsequent doses). […]
When neither peptide design induced neutralizing anti-HIVIIIB antibodies, the peptide doses were increased to approximately 0.5 mg/kg (30 mg/animal) and the right-hand side neutralizing sequence of HIVIIIB gp120 V3 loop (the (A) region) (Hart et al, Proc. Natl. Acad. Sci. USA 88:9448; Rusche et al Proc. Natl. Acad. Sci. USA 85:3198)) (Table 8) was added to the Th-B peptide to enhance the ability of this peptide to induce anti-HIVIIIB neutralizing antibodies. After 3 monthly injections with either ˜0.5 mg/kg (30 mg) Th-B or F-Th-B peptide, the animals were rested for 6 months, and then reimmunized with either F-Th-B or Th-B with sequences from HIVIIIB, or with the Th-B peptide containing HIV env gp120 V3 sequences from the HIVMN isolate.

human JY B cells = experiment: Peptide binding to human cells, flow cytometry with anti-gp120 mab 0.5beta; type: cell-based; details: mean channel fluoresence, peptide 10 ug/ml
Procedure: Anti-gp120 momoclonal antibody was 0.5beta from the NIAID AIDS Research and Reference Reagent Program (Matsushita et al J. Virol. 62:2107, 1988). […] The amount of fluoresence was determined on a flow cytometer and fluoresence brightness was expressed as MFC=mean channel fluoresence.

JY B cells = experiment: Peptide entry into cells, intracytoplasmic fluorescence of acetone-fixed cells; type: cell-based, human; details: for % Intracytoplasmic Positive: peptide 10 μg/ml, 21 hours at 37 degrees C
Procedure: Cells were incubated as descirbed in Table 13. After 21 hours at 37 degrees C., cytocentrifuge preparations of cells were prepared, acetone fixed, and reacted either with control mab P3x63 AgS or with anti-qp120 mab 0.5beta. Slides were read for either faint or bright intracytoplasmic fluoresence on a fluoresence microscope.

HIV MN [3] = experiment: Reverse transcriptase inhibition assay with sera of immunized chimpanzees, HIV MN; type: in vivo
Procedure: as §1

HIV LAI/IIIB [4] = experiment: Syncytium inhibition assay with sera of immunized chimpanzees, HIV LAI/IIIB; type: in vivo
Procedure: as §1

HIV LAI/IIIB [5] = experiment: Reverse transcriptase inhibition assay with sera of immunized chimpanzees, HIV LAI/IIIB; type: in vivo
Procedure: as §1

HIV MN [6] = experiment: Syncytium inhibition assay with sera of immunized chimpanzees, HIV MN; type: in vivo
Procedure: as §1

[7] = chimpanzee 1045 serum, Month 19, prior F-Th-B(IIIB)
[8] = chimpanzee 1045 serum, Month 20, prior F-Th-B(IIIB)
[9] = chimpanzee 1070 serum, Month 18, prior F-Th-B(IIIB)
[10] = chimpanzee 1070 serum, Month 19, prior F-Th-B(IIIB)
[11] = chimpanzee 1070 serum, Month 20, prior F-Th-B(IIIB)

KQIINMWQEVGKAMYACTRPNNNTRKSIRIQRGPG [Peptide T1-SP10IIIB, HIVIIIB Th-B peptide]
induction of serum anti-HIV neutralizing antibodies (HIVIIIB): induced anti-HIV neutralizing antibodies in goats
PBMC proliferation to T1-SP10IIIB(A) peptide [1]: induced high levels of proliferation
immunogenicity in chimpanzees (antibody response) [2]: potent immunogens

KQIINMWQEVGKAMYACTRPNNNTRKSIRIQRGPGRAFVTI [T1-SP10IIIB(A), HIVIIIB Th-B peptide with (A) region]
MFC 4 Degrees C., 1 Hr. (human JY B cells; 4 degrees C, 1 hour): 14.7
MFC 37 Degrees C., 22 Hr. (human JY B cells; 37 degrees C, 22 Hr.): 14.0
PBMC proliferation to T1-SP10IIIB(A) peptide [1]: induced high levels of proliferation
immunogenicity in chimpanzees (antibody response) [2]: potent immunogens
% Intracytoplasmic Positive (JY B cells; Anti-gp120 mab 0.5beta): 0%
% Intracytoplasmic Positive (JY B cells; Control antibody (mab P3x63 AgS)): 0%

KQIINMWQEVGKAMYACTRPNYNKRKRIHIGPGRAFYTTK [T1-SP10MN(A), HIVMN Th-B peptide]
Reciprocal Titer in RT Inhibition Assay (HIV MN [3]; chimpanzee 884 serum, Month 18, prior Th-B(IIIB)): 20
Reciprocal Titer in RT Inhibition Assay (HIV MN [3]; chimpanzee 884 serum, Month 20, prior Th-B(IIIB)): 24
Reciprocal Titer in RT Inhibition Assay (HIV MN [3]; chimpanzee 1045 serum, Month 18, prior F-Th-B(IIIB), Th-B(IIIB)): 23
Reciprocal Titer in RT Inhibition Assay (HIV MN [3]; chimpanzee 1045 serum, Month 19, prior F-Th-B(IIIB), Th-B(IIIB)): 23
Reciprocal Titer in RT Inhibition Assay (HIV MN [3]; chimpanzee 1045 serum, Month 20, prior F-Th-B(IIIB), Th-B(IIIB)): 24
Reciprocal Titer in RT Inhibition Assay (HIV MN [3]; chimpanzee 1070 serum, Month 18, prior F-Th-B(IIIB), Th-B(IIIB)): 22
Reciprocal Titer in RT Inhibition Assay (HIV MN [3]; chimpanzee 1070 serum, Month 19, prior F-Th-B(IIIB), Th-B(IIIB)): 96
Reciprocal Titer in RT Inhibition Assay (HIV MN [3]; chimpanzee 1070 serum, Month 20, prior F-Th-B(IIIB), Th-B(IIIB)): 350
Presence of Neutralization in Syncytium Inhibition Assay (HIV LAI/IIIB [4]; [7]): +/− (≧49% and <80% inhibition of syncytia.)
Presence of Neutralization in Syncytium Inhibition Assay (HIV LAI/IIIB [4]; [8]): − (<48% inhibition of syncytia.)
Presence of Neutralization in Syncytium Inhibition Assay (HIV LAI/IIIB [4]; [9]): +/− (≧49% and <80% inhibition of syncytia.)
Presence of Neutralization in Syncytium Inhibition Assay (HIV LAI/IIIB [4]; [10]): + (≧80% inhibition of syncytia, titer 1:10.)
Presence of Neutralization in Syncytium Inhibition Assay (HIV LAI/IIIB [4]; [11]): +/− (≧49% and <80% inhibition of syncytia.)
Reciprocal Titer in RT Inhibition Assay (HIV LAI/IIIB [5]; [7]): 23
Reciprocal Titer in RT Inhibition Assay (HIV LAI/IIIB [5]; [8]): 22
Reciprocal Titer in RT Inhibition Assay (HIV LAI/IIIB [5]; [9]): 92
Reciprocal Titer in RT Inhibition Assay (HIV LAI/IIIB [5]; [10]): 100
Reciprocal Titer in RT Inhibition Assay (HIV LAI/IIIB [5]; [11]): 86
Reciprocal of ELISA Titer ([2]; chimpanzee 884, month 17, after Th-B(IIIB) months 2-14): 12,800
Reciprocal of ELISA Titer ([2]; chimpanzee 884, month 18, after Th-B(IIIB) months 2-14): 25,600
Reciprocal of ELISA Titer ([2]; chimpanzee 884, month 19, after Th-B(IIIB) months 2-14): 25,600
Reciprocal of ELISA Titer ([2]; chimpanzee 884, month 20, after Th-B(IIIB) months 2-14): 51,200
Reciprocal of ELISA Titer ([2]; chimpanzee 1028, month 17, after Th-B(IIIB) months 2-14, injections in PBS alone): 3,200
Reciprocal of ELISA Titer ([2]; chimpanzee 1028, month 18, after Th-B(IIIB) months 2-14, injections in PBS alone): 6,400
Reciprocal of ELISA Titer ([2]; chimpanzee 1028, month 19, after Th-B(IIIB) months 2-14, injections in PBS alone): 1,600
Reciprocal of ELISA Titer ([2]; chimpanzee 1028, month 20, after Th-B(IIIB) months 2-14, injections in PBS alone): 6,400
Reciprocal of ELISA Titer ([2]; chimpanzee 1045, month 17, after F-Th-B(IIIB) months 2-14 and Th-B(IIIB) month 16): 1,600
Reciprocal of ELISA Titer ([2]; chimpanzee 1045, month 18, after F-Th-B(IIIB) months 2-14 and Th-B(IIIB) month 16): 6,400
Reciprocal of ELISA Titer ([2]; chimpanzee 1045, month 19, after F-Th-B(IIIB) months 2-14 and Th-B(IIIB) month 16): 6,400
Reciprocal of ELISA Titer ([2]; chimpanzee 1045, month 20, after F-Th-B(IIIB) months 2-14 and Th-B(IIIB) month 16): 51,200
Reciprocal of ELISA Titer ([2]; chimpanzee 1070, month 17, after F-Th-B(IIIB) months 2-14 and Th-B(IIIB) month 16): 3,200
Reciprocal of ELISA Titer ([2]; chimpanzee 1070, month 18, after F-Th-B(IIIB) months 2-14 and Th-B(IIIB) month 16): 25,600
Reciprocal of ELISA Titer ([2]; chimpanzee 1070, month 19, after F-Th-B(IIIB) months 2-14 and Th-B(IIIB) month 16): 51,200
Reciprocal of ELISA Titer ([2]; chimpanzee 1070, month 20 (month 20 immunization not given), after F-Th-B(IIIB) months 2-14 and Th-B(IIIB) month 16): 102,400#
detection of peptide inside the JY B cells (JY B cells; 10 ug/ml of peptide for 21 hours at 37 degrees C): could not be detected
Presence of Neutralization in Syncytium Inhibition Assay (HIV MN [6]; chimpanzee 1045 serum, Month 18, prior F-Th-B(IIIB)): − (<48% inhibition of syncytia.)
Presence of Neutralization in Syncytium Inhibition Assay (HIV MN [6]; [7]): − (<48% inhibition of syncytia.)
Presence of Neutralization in Syncytium Inhibition Assay (HIV MN [6]; [8]): − (<48% inhibition of syncytia.)
Presence of Neutralization in Syncytium Inhibition Assay (HIV MN [6]; [9]): − (<48% inhibition of syncytia.)
Presence of Neutralization in Syncytium Inhibition Assay (HIV MN [6]; [10]): + (≧80% inhibition of syncytia, titer 1:10.)
Presence of Neutralization in Syncytium Inhibition Assay (HIV MN [6]; [11]): ++ (≧80% inhibition of syncytia, titer 1:20.)
